In PMC4111603 (PLoS ONE, 2014):

Columns and labels:
Type in all cases: biochemical
Ovine COX-1 = target: T1, Ovine COX-1 (Ovis aries, UniProt P05979); assay: COX-1 oxygenation of arachidonic acid, oxygen electrode; details: for COX-1 activity (% of control): 10 µM AA, initial activity 10-30 s, mean ± s.e.m., n = 3; for inhibition at 300 µM: 300 µM compound
T1 construct: purchased Cayman Chemical Co. 60100
T1 sequence (P05979 25-600): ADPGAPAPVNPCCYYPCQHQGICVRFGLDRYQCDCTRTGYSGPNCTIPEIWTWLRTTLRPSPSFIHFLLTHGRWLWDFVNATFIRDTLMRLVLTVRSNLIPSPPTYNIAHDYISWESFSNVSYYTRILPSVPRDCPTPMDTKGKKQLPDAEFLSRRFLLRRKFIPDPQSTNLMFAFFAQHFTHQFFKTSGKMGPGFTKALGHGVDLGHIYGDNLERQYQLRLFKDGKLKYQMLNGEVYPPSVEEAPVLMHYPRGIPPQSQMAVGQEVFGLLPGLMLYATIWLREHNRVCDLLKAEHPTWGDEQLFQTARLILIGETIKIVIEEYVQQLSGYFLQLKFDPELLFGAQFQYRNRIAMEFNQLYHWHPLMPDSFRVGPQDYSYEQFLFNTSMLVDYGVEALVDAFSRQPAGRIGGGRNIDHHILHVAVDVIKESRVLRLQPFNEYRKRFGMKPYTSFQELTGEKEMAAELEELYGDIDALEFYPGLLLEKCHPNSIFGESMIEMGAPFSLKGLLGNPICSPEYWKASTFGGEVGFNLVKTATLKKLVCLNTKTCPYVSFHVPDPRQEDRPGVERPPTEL
Procedure: (§1) The assay was performed according to Meade et al. with minor modifications using an oxygen electrode chamber with integral stirring (Oxygraph System, Hansatech Instruments, King’s Lynn, U.K.). The electrode was calibrated to ambient temperature and air pressure. Samples were prepared in 0.1 M Tris-HCl buffer pH 7.4 containing 1 µM haematin, 2 mM phenol, 5 mM EDTA, 10 µM substrate (AA or 2-AG) (final assay volume was 2 ml). After addition of test substance dissolved in DMSO (final assay concentration 1%) a baseline was established for 5 min before initiation of reaction by addition of 200 units COX-1 or COX-2. Change in oxygen consumption was monitored for approximately 5 min.
(§2) FAAH inhibition was calculated using log(inhibitor) vs. response with variable slope (four parameters) algorithm in the GraphPad Prism computer program (GraphPad Software Inc., San Diego, CA. USA). […] The two curves were compared by Akaike’s informative criteria and the best fit was chosen. Initial COX activities were calculated as the change in oxygen tension between 10 and 30 seconds after addition of enzyme.

human recombinant COX-2 [1] = target: T2, human recombinant COX-2 (Homo sapiens, UniProt P35354); assay: COX-2 oxygenation of arachidonic acid, oxygen electrode; details: for COX-2 activity (% of control): substrate AA 10 µM, initial activity 10-30 s, n = 3
T2 construct: purchased Cayman Chemical Co. 60122
T2 sequence (P35354 18-604): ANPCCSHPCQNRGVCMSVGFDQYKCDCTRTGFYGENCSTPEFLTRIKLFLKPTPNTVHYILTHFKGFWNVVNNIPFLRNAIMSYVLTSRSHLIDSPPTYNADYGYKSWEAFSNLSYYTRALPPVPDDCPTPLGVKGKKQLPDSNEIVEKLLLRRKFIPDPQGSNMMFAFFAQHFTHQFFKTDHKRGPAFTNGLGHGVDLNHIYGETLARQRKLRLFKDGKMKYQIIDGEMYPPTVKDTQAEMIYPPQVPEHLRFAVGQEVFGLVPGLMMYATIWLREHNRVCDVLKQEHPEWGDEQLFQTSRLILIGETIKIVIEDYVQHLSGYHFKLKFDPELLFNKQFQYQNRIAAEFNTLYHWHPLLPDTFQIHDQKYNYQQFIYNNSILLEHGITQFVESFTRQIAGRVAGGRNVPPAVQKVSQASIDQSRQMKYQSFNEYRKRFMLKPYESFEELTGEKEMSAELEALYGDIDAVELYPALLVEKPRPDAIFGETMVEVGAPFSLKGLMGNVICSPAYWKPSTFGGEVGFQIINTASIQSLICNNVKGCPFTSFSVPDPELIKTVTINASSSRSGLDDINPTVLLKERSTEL
Procedure: as §1, §2

human recombinant COX-2 [2] = target: T2, human recombinant COX-2; assay: COX-2 oxygenation of 2-AG, oxygen electrode; details: for COX-2 activity (% of control): substrate 2-AG 10 µM, initial activity 10-30 s, n = 3
Procedure: as §1, §2

[3] = read-out: inhibition of COX-1-catalysed oxygenation of arachidonic acid

Row | SMILES | COX-1 activity (% of control) (Ovine COX-1; 100 µM NSAID) | COX-1 activity (% of control) (Ovine COX-1; 300 µM NSAID) | inhibition at 300 µM (Ovine COX-1; [3]) [%] | COX-1 activity (% of control) (Ovine COX-1; 1000 µM NSAID) | COX-2 activity (% of control) (human recombinant COX-2 [1]; 100 µM NSAID) | COX-2 activity (% of control) (human recombinant COX-2 [1]; 300 µM NSAID) | COX-2 activity (% of control) (human recombinant COX-2 [2]; 100 µM NSAID) | COX-2 activity (% of control) (human recombinant COX-2 [2]; 300 µM NSAID) | inhibition of COX-2-catalysed oxygenation of 2-AG at longer incubation times (human recombinant COX-2 [2]; lower potency than the parent compound, initial inhibition (10-30 s) only modestly affected) | inhibition at 100 µM (Ovine COX-1; 100 µM compound, read-out: inhibition of COX-1-catalysed oxygenation of arachidonic acid) [%] | inhibition at 1000 µM (Ovine COX-1; 1000 µM compound, read-out: inhibition of COX-1-catalysed oxygenation of arachidonic acid) [%] | inhibition of COX-2-catalysed oxygenation of arachidonic acid (result in words) (human recombinant COX-2 [1]) | COX-2 activity (% of control) (human recombinant COX-2 [1]; 30 µM NSAID) | COX-2 activity (% of control) (human recombinant COX-2 [2]; 30 µM NSAID) | inhibition of cyclooxygenation of 2-AG (human recombinant COX-2 [2]; 30 µM compound) | inhibition of cyclooxygenation of 2-AG (human recombinant COX-2 [2]; 100 µM compound) | inhibition of cyclooxygenation of 2-AG (human recombinant COX-2 [2]; 300 µM compound)
1 | CC(C(=O)O)c1ccc(CC(C)(C)O)cc1 (stereo not drawn) [2′-OH-Ibuprofen, 2-[4-(2-hydroxy-2-methylpropyl)phenyl]propionic acid] | 102±17 % of control | 91±5 % of control | 9 | 95±3 % of control | 98±17 % of control | 83±12 % of control | 125±24 % of control | 115±21 % of control | – | – | – | – | – | – | – | – | –
2 | CC(CO)Cc1ccc(C(C)C(=O)O)cc1 (stereo not drawn) [3′-OH-Ibuprofen, 2-[4-(3-hydroxy-2-methylpropyl)phenyl]propionic acid] | 81±16 % of control | 97±10 % of control | 3 | 68±15 % of control | 103±21 % of control | 84±10 % of control | 73±14 % of control | 91±2 % of control | retained the ability of ibuprofen to inhibit | – | – | – | – | – | – | – | –
3 | CC(C(=O)O)c1ccc(-c2ccc(O)cc2)c(F)c1 (stereo not drawn) [4′-OH-Flurbiprofen] | 97±31 % of control | 72±20 % of control | 28 | 6±6 % of control | 106±16 % of control | 106±9 % of control | 24±4 % of control | −6±9 % of control | – | 3 | 94 | failed to inhibit | 88±16 % of control | 39±11 % of control | partially | partially | completely
